Measured values published in BindingDB's records for doi:10.1021/jm00150a013 (1986).

Target: Chymotrypsinogen A (Bos taurus) (UniProt P00766)
Experiment: Inhibitory activity against bovine Chymotrypsinogen expressed as inhibitory constant

Ki: 1350 µM
SMILES: CCCCc1c(C)oc(=O)c(CCCC)c1O
